For one assay, the target named is WDR5 (Homo sapiens, UniProt P61964). Briefly: WDR5 HTRF binding assay. The note with it: read-out: (a) WDR5 HTRF Pep Val v.1[Inhibitor/IC50]Qualified AC50. An outline of the steps:
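6 nM WDR5 and 20 nM biotin-MLL1 WIN peptide (3762-3773) were incubated with compound (12-point, 3-fold dilutions) in pH 7.5 Hepes/NaCl/DTT buffer for 20 min at rt. Streptavidin-APC plus anti-His-Eu were then added for 1 hr, with HTRF read at 665/615. IC50 was fit from control-normalized activity; the counter assay used 15 nM biotin-PEG-His peptide.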
A general note: In TR-FRET formats the signal depends on donor and acceptor labels being close together.

In assay [1] the target is wild type MLL1 four-member complex (MLL1-4C) (Homo sapiens, UniProt P61964). Briefly: MLL1 LC-MS assay (SAH production). The assay is classed as biochemical. The note with it: read-out: (b) MLL LCMS Peptide Val.v.1 Qualified AC50. An outline of the steps:
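MLL1-4C (30 nM final) was preincubated 20 min with compound (3-fold dilutions, 8 or 12 points) and SAM in Tris-HCl pH 8.0 buffer. H3K4me0 peptide (histone H3[1-21]-biotin) was then added, giving final 2.5 μM SAM and 10 μM substrate, and reactions ran 120 min at rt. After TFA/d4-SAH quench, SAH was quantified by LC-MS/MS and IC50 fitted from control-normalised activity.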

The next assay deals with MV4-11 cells. The assay is described as follows: MV4-11 6-day cell growth CTG (CellTiter-Glo) assay. The assay is classed as cell-based. The note with it: Homo sapiens, MV4-11, 144 h, 6 days, read-out: (c) MLL/WDR5 cell proliferation assay//MLL/WDR5 proliferation MV4:11 Qualified AC50. Put shortly: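 Exponentially growing MV4-11 AML cells (RPMI 1640, 10% FBS) seeded at 300 cells/well with 12-point 1:3 compound dilutions, top final concentration 50 μM. Viability read by CellTiter-Glo luminescence after 6 days at 37° C; % inhibition vs DMSO-only wells fitted to dose-response for IC50.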
(In ATP-based viability assays light output follows the ATP content of the culture.)

`CNc1nccn1Cc1cc2c(c(-c3cc(CO)cnc3Cl)c1)CCN(Cc1cc(OC)c(F)cc1F)C2=O` [Example 61, 5-(2-chloro-5-(hydroxymethyl)pyridin-3-yl)-2-(2,4-difluoro-5-methoxybenzyl)-7-((2-(methylamino)-1H-imidazol-1-yl)methyl)-3,4-dihydroisoquinolin-1(2H)-one]: the IC50 at WDR5 fell in the range of 10 to 1000 nM. Besides, the AC50 (in assay [1]; in the assay with MV4-11 cells) was 10 to 1000 nM throughout.

On to `CNc1nccn1Cc1cc(CN2CCOCC2)c2c(c1)C(=O)N([C@@H](C)c1cc(OC)c(F)cn1)CC2` (single isomer, unassigned) [Example 7], for which the IC50 at WDR5 was less than 10 nM. Further, the AC50 (in assay [1]; with MV4-11 cells) was 10 to 1000 nM throughout.

On to `CCOc1cc([C@H](C)N2CCc3c(cc(CCN(C)CCOC)cc3-c3ccc(F)nc3C)C2=O)ncc1C#N` [Example 234], for which the IC50 at WDR5 was less than 10 nM. Further, the AC50 (in assay [1]; in the assay with MV4-11 cells) was 10 to 1000 nM each time.

For `CCOc1cc(C(C)N2CCc3c(cc(CCN(C)CC)cc3C(O)C(C)C(F)(F)F)C2=O)ncc1C#N` (stereo not drawn) [Example 258, 4-ethoxy-6-(1-(7-(2-(ethyl(methyl)amino)ethyl)-1-oxo-5-(3,3,3-trifluoro-1-hydroxy-2-methylpropyl)-3,4-dihydroisoquinolin-2(1H)-yl)ethyl)nicotinonitrile], the IC50 on WDR5 is less than 10 nM. Further, the AC50 (in assay [1]; in the assay on MV4-11 cells) was 10 to 1000 nM throughout.

On to `CNc1nccn1Cc1cc2c(c(-c3cc(CO)cnc3Cl)c1)CCN(Cc1ccc(F)c(OC(F)F)c1)C2=O` [Example 74, 5-(2-chloro-5-(hydroxymethyl)pyridin-3-yl)-2-(3-(difluoromethoxy)-4-fluorobenzyl)-7-((2-(methylamino)-1H-imidazol-1-yl)methyl)-3,4-dihydroisoquinolin-1(2H)-one], for which the IC50 at WDR5 lay in the range of 10 to 1000 nM. Also, the AC50 (in assay [1]; with MV4-11 cells) was 10 to 1000 nM throughout.

`CNc1nccn1Cc1cc2c(c(-c3cc(CO)cnc3Cl)c1)CCN(Cc1cc(F)cc(Cl)c1)C2=O` [Example 67, 5-(2-chloro-5-(hydroxymethyl)pyridin-3-yl)-2-(3-chloro-5-fluorobenzyl)-7-((2-(methylamino)-1H-imidazol-1-yl)methyl)-3,4-dihydroisoquinolin-1(2H)-one]: on WDR5, the IC50 was in the range of 10 to 1000 nM. In addition, the AC50 (in assay [1]; in the assay with MV4-11 cells) was 10 to 1000 nM in each case.

Regarding `CCOc1cc(CN2CCc3c(cc(CCN(C)CC)cc3C(OC)C(F)(F)F)C2=O)ncc1C#N` (stereo not drawn) [Example 305, 4-ethoxy-6-((7-(2-(ethyl(methyl)amino)ethyl)-1-oxo-5-(2,2,2-trifluoro-1-methoxyethyl)-3,4-dihydroisoquinolin-2(1H)-yl)methyl)nicotinonitrile], at WDR5, the IC50 fell in the range of 10 to 1000 nM. The AC50 (in assay [1]; with MV4-11 cells) was 10 to 1000 nM in each case.

As to `CCOc1cc(CN2CCc3c(cc(CCN(C)CC)cc3-c3ccc(N)nc3C)C2=O)ncc1C#N` [Example 155, 6-((5-(6-amino-2-methylpyridin-3-yl)-7-(2-(ethyl(methyl)amino)ethyl)-1-oxo-3,4-dihydroisoquinolin-2(1H)-yl)methyl)-4-ethoxynicotinonitrile], the IC50 at WDR5 was 10 to 1000 nM. For the same compound, the AC50 (in assay [1]; with MV4-11 cells) was 10 to 1000 nM each time.

As to `CCOc1cc([C@H](C)N2CCc3c(CN(C)C)cc(Cn4ccnc4NC)cc3C2=O)ncc1C#N` [Example 50, (S)-6-(1-(5-((dimethylamino)methyl)-7-((2-(methylamino)-1H-imidazol-1-yl)methyl)-1-oxo-3,4-dihydroisoquinolin-2(1H)-yl)ethyl)-4-ethoxynicotinonitrile], at WDR5, the IC50 lay within 10 to 1000 nM. The AC50 (in assay [1]; with MV4-11 cells) was 10 to 1000 nM each time.

For `CCOc1cc([C@H](C)N2CCc3c(cc(CCN(C)CC)cc3-c3ccc(F)nc3C)C2=O)ncc1C#N` [Example 111, (S)-4-ethoxy-6-(1-(7-(2-(ethyl(methyl)amino)ethyl)-5-(6-fluoro-2-methylpyridin-3-yl)-1-oxo-3,4-dihydroisoquinolin-2(1H)-yl)ethyl)nicotinonitrile], the IC50 at WDR5 was less than 10 nM. The AC50 (in assay [1]; in the assay on MV4-11 cells) was 10 to 1000 nM each time.

Take `CNc1nccn1Cc1cc(CN2CC[C@@H](F)C2)c2c(c1)C(=O)N([C@@H](C)c1cc(OC)c(F)cn1)CC2` [Example 16]: the IC50 at WDR5 lay in the range of 10 to 1000 nM. The AC50 (in assay [1]; with MV4-11 cells) was 10 to 1000 nM each time.

`CCOc1cc([C@H](C)N2CCc3c(cc(Cn4ccnc4C)cc3-c3nn(C)c(=O)cc3C(F)(F)F)C2=O)ncc1C#N` [Example 291]: the IC50 on WDR5 fell in the range of 10 to 1000 nM. Further, the AC50 (in assay [1]; in the assay with MV4-11 cells) was 10 to 1000 nM throughout.

With `CCOc1cc([C@H](C)N2CCc3c(Cl)cc(Cn4ccnc4NC)cc3C2=O)cnc1C#N` [Example 4, (S)-5-(1-(5-chloro-7-((2-(methylamino)-1H-imidazol-1-yl)methyl)-1-oxo-3,4-dihydroisoquinolin-2(1H)-yl)ethyl)-3-ethoxypicolinonitrile], the IC50 on WDR5 fell in the range of 10 to 1000 nM. Also, the AC50 (in assay [1]; in the assay on MV4-11 cells) was 10 to 1000 nM in each case.

For `CCOc1cc([C@H](C)N2CCc3c(cc(Cn4ccnc4NC)cc3C3CC3)C2=O)cnc1C#N` [Example 80, (S)-5-(1-(5-cyclopropyl-7-((2-(methylamino)-1H-imidazol-1-yl)methyl)-1-oxo-3,4-dihydroisoquinolin-2(1H)-yl)ethyl)-3-ethoxypicolinonitrile], the IC50 at WDR5 was in the range of 10 to 1000 nM. Further, the AC50 (in assay [1]; with MV4-11 cells) was 10 to 1000 nM each time.

For `CCOc1cc([C@H](C)N2CCc3c(cc(CCN(C)CC)cc3-c3cn(CC)c(=O)cc3C)C2=O)ncc1C#N` [Example 171, (S)-4-ethoxy-6-(1-(7-(2-(ethyl(methyl)amino)ethyl)-5-(1-ethyl-4-methyl-6-oxo-1,6-dihydropyridin-3-yl)-1-oxo-3,4-dihydroisoquinolin-2(1H)-yl)ethyl)nicotinonitrile], on WDR5, the IC50 was less than 10 nM. Also, the AC50 (in assay [1]; in the assay on MV4-11 cells) was 10 to 1000 nM in each case.

With `CCOc1cc(CN2CCc3c(cc(Cn4ccnc4C)cc3-c3cn(C)nc3C)C2=O)ncc1C#N` [Example 263, 6-((5-(1,3-Dimethyl-1H-pyrazol-4-yl)-7-((2-methyl-1H-imidazol-1-yl)methyl)-1-oxo-3,4-dihydroisoquinolin-2(1H)-yl)methyl)-4-ethoxynicotinonitrile], the IC50 on WDR5 lay within 10 to 1000 nM. Moreover, the AC50 (in assay [1]; in the assay with MV4-11 cells) was 10 to 1000 nM in each case.

On to `CNc1nccn1Cc1ccc2c(c1)C(=O)N([C@@H](C)c1cnc(F)c(OC)c1)CC2` (single isomer, unassigned) [Example 94], for which the IC50 at WDR5 is 10 to 1000 nM. Also, the AC50 (in assay [1]; in the assay with MV4-11 cells) was 10 to 1000 nM throughout.

Regarding `CCOc1cc([C@H](C)N2CCc3c(cc(Cn4ccnc4C)cc3-c3nn(C)cc3C)C2=O)ncc1C#N` [Example 277], the IC50 at WDR5 is 10 to 1000 nM. Further, the AC50 (in assay [1]; with MV4-11 cells) was 10 to 1000 nM in each case.

For `CCOc1cc(C(C)N2CCc3c(cc(CCN(C)CC)cc3-c3ccc(N)nc3C(F)F)C2=O)ncc1C#N` (stereo not drawn) [Example 200, 6-(1-(5-(6-amino-2-(difluoromethyl)pyridin-3-yl)-7-(2-(ethyl(methyl)amino)ethyl)-1-oxo-3,4-dihydroisoquinolin-2(1H)-yl)ethyl)-4-ethoxynicotinonitrile], the IC50 on WDR5 lay in the range of 10 to 1000 nM. Also, the AC50 (in assay [1]; with MV4-11 cells) was 10 to 1000 nM each time.

For the origin of these results see patent publication US20220289732A1, “HETEROCYCLIC WDR5 INHIBITORS AS ANTI-CANCER COMPOUNDS” (NOVARTIS AG, priority 2019, published 2022).
